Experimental data from ChEMBL document CHEMBL3507680, “University of Dundee, Gates Library screen for HepG2 cell viability”.

Assay: Human HepG2 cell viability assay in 384 well format
Type: toxicity, cell-based
Parameters: dose 125 nL, time 70.5 hour; cytotoxicity at 70.5 h: concentration not given beside the values
Details: HepG2 cells, read-out: Inhibition

Point of comparison: `O=C(N[C@@H]1CCNC[C@H]1O)c1cc(F)cc(Cl)c1`, cytotoxicity at 70.5 h -1.46%. Against it:
- Cc1nc(CCCNC(=O)C2CC(=O)N(C3CCCC3)C2)sc1C (stereo unspecified) — lower, -9.24%
- CCc1nnc(Nc2cc(C)nc(C3CCN(c4ncccn4)C3)n2)s1 (stereo unspecified) — higher, 3.49%
- Cc1csc2c(=O)n3c(nc12)CCN(C(=O)c1ccccn1)CC3 — higher, -0.0193%
- COCCNS(=O)(=O)c1ccc(Cl)c(C(=O)N(C)Cc2ccsc2)c1 — lower, -5.32%
- Cc1nnc(N2CCO[C@H]3[C@@H](OCc4ccccn4)CC[C@@H]32)s1 — lower, -2.28%
- c1cncc(N2CCOCC3(CN(Cc4cccs4)CCO3)C2)c1 (stereo unspecified) — higher, 19.2%
- CN1CCN(c2ccc(NC(=O)c3ccoc3)c(C(F)(F)F)c2)CC1 — lower, -7.05%
- O=S1(=O)NC(c2ccnc(N3CCOCC3)n2)=Nc2ccccc21 — lower, -9.53%
- Cc1ccc2c(n1)N(CC1CC1)CCN(Cc1cnn(C)c1)C2 — higher, 30.4%
- CCOCC1CN(C(=O)c2ccoc2)Cc2cnn(C)c21 (stereo unspecified) — higher, 13.6%
- CC(C)c1nc2c(n1C)CCN(Cc1nc(-c3ccsc3)no1)C2 — lower, -9.76%
- CCn1c(C)nnc1SCCNc1nc(C)ncc1S(C)(=O)=O — lower, -11.4%
- Cn1ncc2c1C(COCC1CC1)CN(Cc1ccsc1)C2 (stereo unspecified) — higher, 2.88%
- O=C(NCCCNc1ccc(C(F)(F)F)cn1)c1ccc(F)cc1 — lower, -18.9%
- CNc1nc(C)c(C(=O)N2CCCCC2CCc2ccccc2)s1 (stereo unspecified) — lower, -5.18%
- CNc1cc(C)nc(N2C[C@H](NC(=O)C3CCOCC3)[C@@H](C3CC3)C2)n1 — higher, 1.67%
- CNc1ncccc1C(=O)N1CCC2(CCN(C)C2)CC1 — higher, 2.78%
- Cc1ccc(C(=O)N2CCSCC2)cc1NC(=O)Cn1cncn1 — lower, -6.81%
- C[C@@H]1CN(C(=O)NC2CC2)C[C@]12CCN(c1ccsc1)C2=O — lower, -3.3%
- CS(=O)(=O)NC[C@]12COC[C@H]1CN(CC1CCCC1)C2 — lower, -12.8%
- COCC1(NC(=O)Nc2nc(C)ns2)CCCC1 — lower, -13.9%
- O=C(NCC1CCCO1)c1cc(COc2ccccc2F)[nH]n1 (stereo unspecified) — lower, -3.44%
- CS(=O)(=O)NC[C@@H]1OC[C@H]2CN(Cc3ccccc3)CC[C@H]21 — higher, -1.13%
- CC(C)c1nccn1C1CCCN(C(=O)CCNS(C)(=O)=O)C1 (stereo unspecified) — lower, -6.32%
- CNc1nc2c(s1)C(c1ccccc1F)CC(=O)N2 (stereo unspecified) — higher, 9.16%
- Cc1cc(C)n(CC(C)NC(=O)c2cc(C(C)C)on2)n1 (stereo unspecified) — lower, -4.49%
- CCn1ccnc1CN1CCN(CC(=O)NC2CCOCC2)CC1 — higher, 25.6%
- COCCCS(=O)(=O)N(Cc1cccc(C)c1)Cc1ccccn1 — higher, 8.58%
- N#CCCN(Cc1cccnc1)C(=O)c1ccc(OCC2CC2)cc1 — lower, -4.18%
- COc1ccc(OC2CCN(C(=O)CCc3n[nH]c(C)n3)CC2)cc1 — higher, 22.6%
- Cc1cnn(CC2CCCN2CCCc2nc3ccccc3o2)c1 (stereo unspecified) — lower, -16.1%
- Cc1n[nH]cc1CNCC(c1cccc(F)c1)N(C)C (stereo unspecified) — higher, -1.43%
- c1cncc(CN2CCCn3nnc(COCC4CC4)c3C2)c1 — lower, -9.26%
- CC(=O)Nc1nc(C(=O)N2CCCC2c2noc(C3CC3)n2)cs1 (stereo unspecified) — lower, -3.64%
- CSCC(CCO)NC(=O)Nc1ccc(Br)cc1 (stereo unspecified) — lower, -11.8%
- O=C(Nc1cc(C(F)(F)F)c[nH]c1=O)N1CCCSCC1 — lower, -8.3%
- O=C(N1CCOCC(O)C1)C1(c2ccc(Cl)cc2)CCC1 (stereo unspecified) — higher, 21.7%
- C[C@@H]1CN(C2(C(=O)N3CCOCC3)Cc3ccccc3C2)C[C@H](C)O1 — higher, 2.82%
- CC(C)C[C@@H]1N[C@H](C(=O)NCC2CC2)Cc2c[nH]c3cccc1c23 — higher, 0.485%
- COc1cccc(N2CC3(CCN(c4ccc(C)nn4)C3)CC2=O)c1 (stereo unspecified) — lower, -2.78%
- Cc1cccc(C(C)CNC(=O)N2CCOCC3(CCOCC3)C2)c1 (stereo unspecified) — lower, -4.47%
- CCc1nnc(CN(CC)C(=O)C2CC(=O)N(C3CCCC3)C2)o1 (stereo unspecified) — lower, -10.6%
- COc1cnc(C2(O)CCN(C(=O)c3ccco3)CC2)c(OC)n1 — lower, -9.83%
- CC(C)(C)C(=O)NCCNCc1ccc(Cl)c2cccnc12 — higher, -0.239%
- CCc1[nH]ncc1C(=O)N1CCCN(Cc2cnn(C(C)C)c2)CC1 — higher, 6.52%
- CS(=O)(=O)c1ccc(OCCNCc2cccc(O)c2)cc1 — higher, -0.254%
- Cc1ccc(Cl)cc1NCc1nc2[nH]c(C)c(C)c(=O)n2n1 — higher, -0.0581%
- Cc1nn(C)c(N(C)C)c1CNC1CCc2c(F)cccc21 (stereo unspecified) — higher, 7.05%
- CCC(c1ccccc1)N1CCN(C(=O)c2cc(C(N)=O)c[nH]2)CC1 (stereo unspecified) — lower, -4.98%
- Cc1cnc(CN2CCCC2c2cnn(C)c2)cn1 (stereo unspecified) — lower, -10.3%
- CN(C)C(=O)COC1COC2(CCN(CC3CCOCC3)CC2)C1 (stereo unspecified) — lower, -4.78%
- CNC(=O)[C@@H]1COC[C@H]2CN(C(=O)COc3ccccc3)C[C@H]21 — higher, -1.14%
- CCOc1cc(C)nc(N2CCN(C(C)c3nc(C)no3)CC2)n1 (stereo unspecified) — lower, -1.64%
- COc1ccc(CN2CCOC3(CCCN(c4nnc(C)o4)C3)C2)cc1 (stereo unspecified) — lower, -2.27%
- O=C(NCc1ccc(Cl)s1)c1cc(CN2CCCC(O)C2)on1 (stereo unspecified) — higher, 19.4%
